Laboratory results from patent US8772282B2, “Tetrahydropyrrolothiazine compounds” (Eli Lilly and Company, priority 2012, dated 2014).
Structures can show the parent of a compound that is named as a salt. Where two headings read alike, the source gives them in different places.

Assays:
beta-secretase = beta-secretase (Mus musculus (Mouse), UniProt P56818); experiment: In Vivo Inhibition of Beta-Secretase in PDAPP mice
[1] = biological target: native endogenous human BACE1 (Homo sapiens (Human), UniProt P56817); experiment: HEK293Swe Whole Cell Assay (Abeta lowering, ELISA); type: cell-based; details: HEK293/APP751sw cells, Mean ± SEM
human BACE1 (1-460):Fc = human BACE1 (1-460):Fc (Homo sapiens (Human), UniProt P56817); experiment: BACE1 FRET Assay; type: biochemical; details: Mean ± SEM; purified recombinant huBACE1:Fc, FRET substrate, pH 4.6
[2] = biological target: native, endogenous murine BACE1 (Mus musculus (Mouse), UniProt P56818); experiment: PDAPP Primary Neuronal Assay (Abeta lowering, ELISA); type: cell-based; details: primary cortical neurons from PDAPP embryos, 24 h, Mean ± SEM
[3] = 10 mg/kg oral dose, 3 hours after administration, CSF
[4] = 10 mg/kg oral dose, 3 hours after administration, compared to vehicle-treated mice
[5] = 10 mg/kg oral dose, 3 hours, young female PDAPP mice, compared to vehicle-treated mice
[6] = Abeta 1-40 in conditioned media, read-out: HEK 293 Swe A-beta (1-40) ELISA IC50
[7] = Abeta 1-40, read-out: PDAPP Neuron A-beta (1-40) ELISA IC50
[8] = Abeta 1-42, read-out: PDAPP Neuron A-beta (1-42) ELISA IC50
[9] = 30 mg/kg oral dose, 3 hours after administration, compared to vehicle-treated mice

Sequence of native, endogenous murine BACE1 (P56818 46-501): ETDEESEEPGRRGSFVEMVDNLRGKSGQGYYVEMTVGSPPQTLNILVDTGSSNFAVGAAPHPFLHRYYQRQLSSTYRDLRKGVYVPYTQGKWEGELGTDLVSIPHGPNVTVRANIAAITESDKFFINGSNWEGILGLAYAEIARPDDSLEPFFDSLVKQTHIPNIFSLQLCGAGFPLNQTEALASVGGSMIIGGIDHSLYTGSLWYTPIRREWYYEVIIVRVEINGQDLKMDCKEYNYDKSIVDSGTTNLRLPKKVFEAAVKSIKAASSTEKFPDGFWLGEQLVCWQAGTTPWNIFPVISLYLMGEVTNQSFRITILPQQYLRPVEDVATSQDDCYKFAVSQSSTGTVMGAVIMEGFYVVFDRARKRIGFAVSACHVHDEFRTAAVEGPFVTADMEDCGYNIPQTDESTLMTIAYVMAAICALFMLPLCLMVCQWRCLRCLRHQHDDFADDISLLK
Sequence of beta-secretase (P56818 46-501): as above
Sequence of native endogenous human BACE1 (P56817 46-501): as the sequence (P56818 46-501) above, with S6P, I162V, I165L, T180S, A182V, V340I, A393L, H443Q counted along it
Sequence of human BACE1 (1-460):Fc (P56817 22-460): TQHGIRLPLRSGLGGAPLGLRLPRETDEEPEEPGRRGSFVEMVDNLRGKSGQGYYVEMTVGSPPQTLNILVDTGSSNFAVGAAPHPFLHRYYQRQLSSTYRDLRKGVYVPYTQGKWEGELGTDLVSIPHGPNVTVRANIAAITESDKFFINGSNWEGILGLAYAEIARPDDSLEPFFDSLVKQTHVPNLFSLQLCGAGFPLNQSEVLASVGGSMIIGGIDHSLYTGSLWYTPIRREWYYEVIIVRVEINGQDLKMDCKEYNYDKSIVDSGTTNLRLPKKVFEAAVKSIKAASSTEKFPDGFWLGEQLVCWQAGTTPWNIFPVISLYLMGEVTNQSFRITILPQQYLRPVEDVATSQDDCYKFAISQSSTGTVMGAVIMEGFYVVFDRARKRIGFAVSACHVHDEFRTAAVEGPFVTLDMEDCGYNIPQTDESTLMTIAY

Compound	CSF Abeta 1-x levels reduced (beta-secretase; [3])	Reduction of CSF sAPPbeta (beta-secretase; [3]) [%]	Abeta 1-x peptide levels reduced in brain cortex (beta-secretase; [4])	Abeta 1-x peptide levels reduced in brain hippocampus (beta-secretase; [4])	C99 levels reduced in brain cortex (beta-secretase; [5]) [%]	C99 levels reduced in brain hippocampus (beta-secretase; [5]) [%]	sAPPb levels reduced in brain cortex (beta-secretase; [5]) [%]	sAPPb levels reduced in brain hippocampus (beta-secretase; [5]) [%]	IC50 [1, 6] [nM]	IC50 (human BACE1 (1-460):Fc) [nM]	IC50 [2, 7] [nM]	IC50 [2, 8] [nM]	Abeta 1-x peptide levels reduced in brain cortex (beta-secretase; [9]) [%]	Abeta 1-x peptide levels reduced in brain hippocampus (beta-secretase; [9]) [%]	IC50 ([1]; Abeta 1-42 in conditioned media, read-out: HEK 293 Swe A-beta (1-42) ELISA IC50) [nM]
Cl.NC1=N[C@@]2(c3ccccc3)CN(c3ncc(F)cn3)C[C@H]2CS1 [Example 1, (4aR,7aS)-6-(5-Fluoropyrimidin-2-yl)-7a-phenyl-4,4a,5,7-tetrahydropyrrolo[3,4-d][1,3]thiazin-2-amine hydrochloride]	approximately 80%	22	approximately 62%	approximately 51%	~63	~58	~34	~37	233	64.4	116	103			
NC1=N[C@@]2(c3ccc(F)s3)CN(c3ncccn3)C[C@H]2CS1 [Example 30, [(4aR,7aR)-7a-(5-Fluorothiophen-2-yl)-6-(pyrimidin-2-yl)-4,4a,5,6,7,7a-hexahydropyrrolo[3,4-d][1,3]thiazin-2-amine hydrochloride]										166					
Cl.N#Cc1ccc([C@]23CN(c4ncc(F)cn4)C[C@H]2CSC(N)=N3)s1 [Example 31, 5-[(4aR,7aR)-2-Amino-6-(5-fluoropyrimidin-2-yl)-4a,5,6,7-tetrahydropyrrolo[3,4-d][1,3]thiazin-7a(4H)-yl]thiophene-2-carbonitrile hydrochloride]			approximately 23%	approximately 18%									~63	~51	
NC1=N[C@@]2(c3ccc(F)s3)CN(c3ncc(F)cn3)C[C@H]2CS1 [Example 32, [(4aR,7aR)-6-(5-Fluoropyrimidin-2-yl)-7a-(5-fluorothiophen-2-yl)-4,4a,5,6,7,7a-hexahydropyrrolo[3,4-d][1,3]thiazin-2-amine hydrochloride]									345	91.2	378	245			356
